Laboratory results as given in patent publication US7745173B2, “Histone deacetylase and methods of use thereof” (The J. David Gladstone Institutes, priority 2001, dated 2010).

Experiments:
[1] = tested on: CRM1-mediated nuclear export of HDAC7-FLAG; experiment: Subcellular localization of HDAC7-FLAG in transfected cells by indirect immunofluorescence; assay type: cell-based
Method: Immunofluorescence and Confocal Microscopy—Cells were plated onto glass coverslips and transfected the following day with Lipofectamine 2000 (Life Technologies) according to the manufacturer's instructions. After incubation overnight, transfected cells were fixed with 1% paraformaldehyde, permeabilized with phosphate buffered saline (PBS), pH 7.2 and 0.5% Triton X-100 and then incubated for 60 min at room temperature with the appropriate antibodies at dilutions typically between 1:100 and 1:1000. Cells were mounted onto glass slides in PBS/90% glycerol containing 1 mM paraphenylenediamine as an antifade reagent. Confocal microscopy was performed with a Zeiss LSM510 laser scanning confocal microscope at 488 nm (Alexa 488-conjugated secondary antibodies) and 543 nm (Cy3-conjugated secondary antibodies). The pinhole aperture was set to 1.0 airy unit for each channel. Band-pass filters and sequential scanning of individual fluorescent probes were used to eliminate cross talk between channels. Images were collected as 12-bit images, and each channel was independently rescaled from 0 to 255 (8-bit) for final presentation. […]

[2] = tested on: Nur77; experiment: Nur77 mRNA expression by northern blot in DO11.10 T-cells; assay type: cell-based, mouse; settings: DO11.10 cells, 400 nM, various times
Method: DO11.10 T cell hybridomas were grown at 37° C., in RPMI 1640 medium supplemented with 10% FBS, 2 mM glutamine and 50 U/ml of streptomycin/penicillin. Transfections were performed by the DEAE-dextran-chlororquine method. The DNA concentration was kept constant in the different samples by using the corresponding empty vector. In some cases, 16 hours after transfection cells were treated with PMA (10 ng/ml) and ionomycin (0.5 μM) for 4 hours and then harvested for reporter assay. All transfections were done in triplicate and are presented as the result of at least 3 independent experiments. Luciferase reporter assays were done with the dual luciferase reporter assay system (Promega) using an EF1α promoter-driven renilla expression vector as an internal control.
The tissue-expression of HDAC7 was analyzed as using a multiple human tissue Northern blot and RNA Master blots obtained from Clontech. Expression of Nur77 upon TSA treatment was assessed as followed. DO11.10 cells were treated with 400 nM of TSA (Sigma) for various times. […] Autoradiographs were analyzed with a FUJIX BAS1000 phosphorus imaging system (Fuji, Tokyo, Japan). Quantification analysis of autoradiographs was performed on a Macintosh computer using the public domain NIH Image 1.62 program (developed at the U.S. National Institute of Health).

[3] = tested on: thymocytes; experiment: Apoptosis in thymocytes expressing dominant negative HDAC7 constructs, commercially available kit; assay type: cell-based; settings: construct expressed in thymocytes
Method: Constructs encoding dominant negative mutants of HDAC7 were generated. These constructs direct expression of either the amino terminal domain (amino acids 1-437) or the carboxyl terminal domain (amino acids 438-915) of HDAC7 in mammalian cells. These construct were individually introduced into thymocytes. Apoptosis was measured using a commercially available kit.

Molecule: CCC(=C/[C@H](C)C/C=C/C(C)=C/[C@@H](C)C(=O)[C@@H](C)[C@H](O)[C@@H](C)C/C(C)=C/C(=O)O)/C=C/[C@@H]1OC(=O)C=C[C@@H]1C [leptomycin B]
- Subcellular localization of HDAC7-FLAG [1]: nuclear localization of HDAC7-FLAG in most transfected cells

Molecule: CC(/C=C/C(=O)NO)=C\[C@@H](C)C(=O)c1ccc(N(C)C)cc1 [trichostatin A]
- Nur77 mRNA expression [2]: induced in a time dependent manner

B1: carboxyl terminal domain (amino acids 438-915): dominant negative mutant of HDAC7: carboxyl terminal domain, amino acids 438-915, expressed from a construct (protein, UniProt Q8WUI4 438-915, looked up, fragment)
chain: GPAPLQQHPQVLLWEQQRLAGRLPRGSTGDTVLLPLAQGGHRPLSRAQSSPAAPASLSAPEPASQARVLSSSETPARTLPFTTGLIYDSVMLKHQCSCGDNSRHPEHAGRIQSIWSRLQERGLRSQCECLRGRKASLEELQSVHSERHVLLYGTNPLSRLKLDNGKLAGLLAQRMFVMLPCGGVGVDTDTIWNELHSSNAARWAAGSVTDLAFKVASRELKNGFAVVRPPGHHADHSTAMGFCFFNSVAIACRQLQQQSKASKILIVDWDVHHGNGTQQTFYQDPSVLYISLHRHDDGNFFPGSGAVDEVGAGSGEGFNVNVAWAGGLDPPMGDPEYLAAFRIVVMPIAREFSPDLVLVSAGFDAAEGHPAPLGGYHVSAKCFGYMTQQLMNLAGGAVVLALEGGHDLTAICDASEACVAALLGNRVDPLSEEGWKQKPNLNAIRSLEAVIRVHSKYWGCMQRLASCPDSWVPRVPGA
- Apoptosis in thymocytes [3]: strongly induces apoptosis

B2: amino terminal domain (amino acids 1-437): dominant negative mutant of HDAC7: amino terminal domain, amino acids 1-437, expressed from a construct (protein, UniProt Q8WUI4 1-437, looked up, fragment)
chain: MDLRVGQRPPVEPPPEPTLLALQRPQRLHHHLFLAGLQQQRSVEPMRLSMDTPMPELQVGPQEQELRQLLHKDKSKRSAVASSVVKQKLAEVILKKQQAALERTVHPNSPGIPYRTLEPLETEGATRSMLSSFLPPVPSLPSDPPEHFPLRKTVSEPNLKLRYKPKKSLERRKNPLLRKESAPPSLRRRPAETLGDSSPSSSSTPASGCSSPNDSEHGPNPILGSEALLGQRLRLQETSVAPFALPTVSLLPAITLGLPAPARADSDRRTHPTLGPRGPILGSPHTPLFLPHGLEPEAGGTLPSRLQPILLLDPSGSHAPLLTVPGLGPLPFHFAQSLMTTERLSGSGLHWPLSRTRSEPLPPSATAPPPPGPMQPRLEQLKTHVQVIKRSAKPSEKPRLRQIPSAEDLETDGGGPGQVVDDGLEHRELGHGQPEAR
- Apoptosis in thymocytes [3]: strongly induces apoptosis
